Test results published in patent US20070071778A1 (ISP INVESTMENTS INC., priority 2005, published 2007).

Tested on: mixed fungal inoculum (Aspergillus niger, Penicillium funiculosum and Stachybotrys chartarum)
Assay: Fungicidal efficacy on water saturated gypsum boards
Format: cell-based
Parameters: key: Presence (+); Absence (−) of Fungal Growth
Conditions: gypsum board, 1,000 ppm triclosan, 28° C., 80% RH, 30-45 days
Method: The compositions of Example 9 were diluted to 1,000 ppm of triclosan. Then both sides of a gypsum board (cream and grey) sample (2×2×½ in.) were brush coated with each formulation and allowed to dry for 24 hours. The Controls were gypsum boards treated with only water or with only 1,000 ppm of triclosan in dimethyl sulfamide. The treated gypsum boards were then placed on a Petri dish and water was added to saturate the board. The water saturated gypsum boards were then inoculated with a mixed fungal inoculum (Aspergillus niger, Penicillium funiculosum and Stachybotrys chartarum) containing ca. 10^5 spores/ml. The samples were incubated at 28° C., 80% RH for 30-45 days and rated for the presence or absence of fungal growth thereon. Samples showing no growth were re-inoculated and incubated for another 30-45 days.

Structure (SMILES): Oc1cc(Cl)ccc1Oc1ccc(Cl)cc1Cl [Triclosan, triclosan]
- Presence (+)/Absence (−) of Fungal Growth, Cream Side: +
- Presence (+)/Absence (−) of Fungal Growth, Grey Side: +
